In ChEMBL document CHEMBL1201862, “PubChem BioAssay data set” (2004):
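Exposure lasted 48 hours, with cells grown in 96-well plates and compounds tested at five concentrations. GI50 = concentration required for 50% inhibition of growth.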 Calls of active or inactive are those of the source. Rule as the data show it: active = GI50 up to about 1.1 µM and inactive = higher.

Experiments:
Test in all cases: NCI anticancer screen, dose series, 48 h
NCI-H226 = system: NCI-H226
KM12 = system: KM12
SW-620 = system: SW-620
UO-31 = system: UO-31
MCF7 = system: MCF7
OVCAR-3 = system: OVCAR-3
HL-60 = system: HL-60
MDA-N = system: MDA-N
OVCAR-5 = system: OVCAR-5
SF-539 = system: SF-539
TK-10 = system: TK-10
786-0 = system: 786-0
SNB-75 = system: SNB-75
BT-549 = system: BT-549
Malme-3M = system: Malme-3M
PC-3 = system: PC-3
RPMI-8226 = system: RPMI-8226
UACC-62 = system: UACC-62
NCI-H23 = system: NCI-H23
UACC-257 = system: UACC-257

Measured: GI50

Cn1ccnc1Sc1ccc(/C=N/NC(=O)c2ccccc2O)cc1[N+](=O)[O-]
active: RPMI-8226 0.0723 µM
inactive: NCI-H226 > 100 µM | KM12 > 100 µM | SW-620 > 100 µM | UO-31 79.1 µM | MCF7 84.3 µM | OVCAR-3 > 100 µM | HL-60 44.9 µM | MDA-N 61.5 µM | OVCAR-5 > 100 µM | SF-539 60.7 µM | TK-10 > 100 µM | 786-0 61.4 µM | SNB-75 > 100 µM | BT-549 89.7 µM | Malme-3M 40.9 µM | PC-3 56.9 µM | UACC-62 86.1 µM | NCI-H23 56.9 µM | UACC-257 > 100 µM

CC(C)CC(N)C(=O)Nc1ccc2ccccc2c1 (stereo unspecified)
inactive: NCI-H226 67.8 µM | SW-620 > 100 µM | UO-31 > 100 µM | MCF7 > 100 µM | OVCAR-3 8.2 µM | HL-60 98.2 µM | MDA-N > 100 µM | OVCAR-5 > 100 µM | SF-539 > 100 µM | TK-10 > 100 µM | 786-0 > 100 µM | SNB-75 > 100 µM | BT-549 > 100 µM | Malme-3M > 100 µM | PC-3 > 100 µM | RPMI-8226 > 100 µM | UACC-62 > 100 µM | NCI-H23 > 100 µM | UACC-257 > 100 µM
active: KM12 0.316 µM

CCCCC[C@@H]1OCO[C@@]2(C)/C=C(C)\C=C/C(=O)O[C@H]([C@@H](C)[C@@H](O)[C@H](C)[C@@]3(O)C[C@@H](O[C@H]4C[C@@H](O)[C@H](O)[C@@H](C)O4)[C@H](C)[C@@H](C)O3)[C@@H](OC)/C=C\C=C(\C)C[C@@H]1[C@@H]2O (stereo in doubt)
active: NCI-H226 < 0.005 µM | KM12 < 0.005 µM | SW-620 < 0.005 µM | MCF7 < 0.005 µM | OVCAR-3 < 0.005 µM | HL-60 < 0.005 µM | MDA-N < 0.005 µM | OVCAR-5 < 0.005 µM | SF-539 < 0.005 µM | TK-10 0.119 µM | 786-0 < 0.005 µM | SNB-75 < 0.005 µM | BT-549 0.5 µM | Malme-3M < 0.005 µM | PC-3 < 0.005 µM | RPMI-8226 < 0.005 µM | UACC-62 < 0.005 µM | NCI-H23 0.5 µM | UACC-257 < 0.005 µM

COC(=O)C1(O)c2ccccc2N=C2C(=O)c3ccccc3N21 (stereo unspecified) [METHYLISATOID]
inactive: NCI-H226 > 100 µM | KM12 > 100 µM | SW-620 > 100 µM | UO-31 > 100 µM | MCF7 > 100 µM | OVCAR-3 45.3 µM | HL-60 > 100 µM | MDA-N 15.7 µM | OVCAR-5 > 100 µM | SF-539 > 100 µM | TK-10 > 100 µM | 786-0 > 100 µM | SNB-75 > 100 µM | BT-549 > 100 µM | Malme-3M 51.8 µM | PC-3 36.6 µM | RPMI-8226 > 100 µM | NCI-H23 > 100 µM | UACC-257 23.8 µM

NS(=O)(=O)c1ccc(NC(=O)c2cccc3cc4ccccc4nc23)cc1
inactive: NCI-H226 25.9 µM | KM12 11.3 µM | SW-620 6.04 µM | UO-31 8.07 µM | MCF7 6.68 µM | OVCAR-3 46.6 µM | HL-60 25.9 µM | MDA-N 13 µM | OVCAR-5 > 96.2 µM | SF-539 13.8 µM | TK-10 28.2 µM | 786-0 12.8 µM | SNB-75 > 37.4 µM | BT-549 42.4 µM | Malme-3M 12.2 µM | PC-3 37.3 µM | RPMI-8226 8.32 µM | UACC-62 66.5 µM | NCI-H23 20.5 µM | UACC-257 71.4 µM

O=c1[nH]nc(-c2ccccc2)n1/N=C/c1cccnc1
inactive: NCI-H226 57.9 µM | KM12 23.4 µM | SW-620 > 100 µM | UO-31 > 100 µM | MCF7 47.1 µM | OVCAR-3 > 100 µM | HL-60 50.2 µM | MDA-N 34.9 µM | OVCAR-5 92.5 µM | SF-539 40.4 µM | TK-10 > 100 µM | 786-0 > 100 µM | SNB-75 50.6 µM | BT-549 39.2 µM | Malme-3M > 100 µM | PC-3 52.2 µM | RPMI-8226 74 µM | NCI-H23 > 100 µM | UACC-257 > 100 µM

COc1ccc(C(=O)c2c(-c3ccccc3NC(=O)C(F)(F)F)[nH]c3ccccc23)cc1
inactive: NCI-H226 14.7 µM | KM12 3.88 µM | SW-620 4.06 µM | UO-31 5.05 µM | MCF7 1.74 µM | OVCAR-3 3.83 µM | HL-60 2.42 µM | MDA-N 15.3 µM | OVCAR-5 12.5 µM | SF-539 1.94 µM | TK-10 11.6 µM | SNB-75 2.47 µM | BT-549 14.5 µM | Malme-3M 14.4 µM | PC-3 5.92 µM | RPMI-8226 4.8 µM | UACC-62 12.1 µM | NCI-H23 11.7 µM | UACC-257 15.6 µM

CC(C)(C)c1cc(C(P(=O)(c2ccccc2)c2ccccc2)P(=O)(c2ccccc2)c2ccccc2)cc(C(C)(C)C)c1O
inactive: NCI-H226 3.44 µM | KM12 1.8 µM | SW-620 3.21 µM | UO-31 2.24 µM | MCF7 2.28 µM | OVCAR-3 2.3 µM | HL-60 3.03 µM | MDA-N 1.91 µM | OVCAR-5 2.56 µM | SF-539 2.25 µM | TK-10 4.68 µM | 786-0 2.8 µM | SNB-75 2.71 µM | BT-549 3.36 µM | Malme-3M 2.47 µM | PC-3 2.67 µM | RPMI-8226 3.19 µM | UACC-62 1.58 µM | NCI-H23 2.84 µM | UACC-257 2.04 µM

Cc1cnc2c(c1)C(=O)N(c1ccc([N+](=O)[O-])cc1)S2(=O)=O
inactive: NCI-H226 19.9 µM | KM12 > 100 µM | SW-620 58.7 µM | UO-31 > 100 µM | MCF7 > 100 µM | OVCAR-3 > 100 µM | HL-60 28.2 µM | MDA-N 93.5 µM | OVCAR-5 > 100 µM | SF-539 64.6 µM | TK-10 > 100 µM | 786-0 > 100 µM | SNB-75 61.1 µM | BT-549 36.1 µM | Malme-3M 22.4 µM | PC-3 67.3 µM | RPMI-8226 37.7 µM | UACC-62 75.5 µM | NCI-H23 > 100 µM | UACC-257 > 100 µM

C=CC1C(OC2OC(CO)C(O)C(O)C2O)OC=C(C(=O)OC)C1CC1CC(=O)CC(CCc2ccc(O)cc2)O1 (stereo unspecified)
inactive: NCI-H226 > 100 µM | KM12 > 100 µM | SW-620 > 100 µM | UO-31 > 100 µM | MCF7 > 100 µM | OVCAR-3 > 100 µM | HL-60 > 100 µM | MDA-N > 100 µM | OVCAR-5 > 100 µM | SF-539 > 100 µM | TK-10 > 100 µM | 786-0 > 100 µM | SNB-75 > 100 µM | BT-549 > 100 µM | Malme-3M > 100 µM | PC-3 > 100 µM | RPMI-8226 > 100 µM | UACC-62 > 100 µM | NCI-H23 > 100 µM | UACC-257 > 100 µM

O=C(O)c1ccc(/C=N\N(CCO)C2=NCCN2)cc1
inactive: NCI-H226 > 100 µM | KM12 > 100 µM | SW-620 > 100 µM | UO-31 > 100 µM | MCF7 > 100 µM | OVCAR-3 > 100 µM | HL-60 > 100 µM | MDA-N > 100 µM | OVCAR-5 > 100 µM | SF-539 > 100 µM | TK-10 > 100 µM | 786-0 > 100 µM | SNB-75 66.5 µM | BT-549 > 100 µM | Malme-3M > 100 µM | PC-3 > 100 µM | RPMI-8226 > 100 µM | UACC-62 > 100 µM | NCI-H23 > 100 µM

N#C/C(=C\c1ccc(Cl)cc1)c1nc(-c2cc3ccccc3oc2=O)cs1
inactive: NCI-H226 39 µM | KM12 74.1 µM | SW-620 > 100 µM | UO-31 80.7 µM | MCF7 > 100 µM | HL-60 > 100 µM | MDA-N 59.8 µM | OVCAR-5 > 100 µM | SF-539 39.8 µM | TK-10 26.9 µM | 786-0 30.3 µM | SNB-75 26.9 µM | BT-549 14.9 µM | Malme-3M 41.7 µM | PC-3 > 100 µM | RPMI-8226 > 100 µM | UACC-62 28.9 µM | UACC-257 47.6 µM

COC(=O)c1c(O)ccc2c1c1c(n2Cc2ccc(Cl)cc2Cl)C(=O)c2ccccc2C1
inactive: NCI-H226 27.6 µM | KM12 22 µM | SW-620 57 µM | UO-31 97.9 µM | MCF7 26.8 µM | OVCAR-3 49.2 µM | HL-60 > 100 µM | MDA-N 52.8 µM | SF-539 54.5 µM | TK-10 > 100 µM | 786-0 74.5 µM | SNB-75 20 µM | BT-549 75.9 µM | Malme-3M 97.7 µM | PC-3 24.1 µM | RPMI-8226 19.7 µM | UACC-62 > 100 µM | NCI-H23 60 µM | UACC-257 42.2 µM

CC1(C)OC(C(C)(C)O)C(C(C)(C)O)O1 (stereo unspecified)
inactive: NCI-H226 > 100 µM | KM12 > 100 µM | SW-620 > 100 µM | UO-31 > 100 µM | MCF7 > 100 µM | HL-60 > 100 µM | MDA-N > 100 µM | OVCAR-5 > 100 µM | SF-539 > 100 µM | TK-10 > 100 µM | 786-0 > 100 µM | SNB-75 > 100 µM | BT-549 > 100 µM | Malme-3M > 100 µM | PC-3 > 100 µM | RPMI-8226 > 100 µM | UACC-62 > 100 µM | NCI-H23 > 100 µM | UACC-257 > 100 µM
